Assay results taken from patent US11098038B2, “Imidazole-based anticancer agents and derivatives thereof, and methods of making and using same” (The University of Toledo, priority 2017, dated 2021).

Legend:
NCI/ADR-RES = assay: NCI 60 screen, NCI/ADR-RES; type: cell-based; details: Homo sapiens, Ovarian
Description: (§1) The compounds synthesized were tested at the National Cancer Institute (NCI) for anti-proliferative activity in the 60 human tumor cell line assay.

SK-MEL-5 = assay: NCI 60 screen, SK-MEL-5; type: cell-based; details: Homo sapiens, Melanoma
Description: as §1

SNB-19 = assay: NCI 60 screen, SNB-19; type: cell-based; details: Homo sapiens, CNS
Description: as §1

SF-268 = assay: NCI 60 screen, SF-268; type: cell-based; details: Homo sapiens, CNS
Description: as §1

K-562 = assay: NCI 60 screen, K-562; type: cell-based; details: Homo sapiens, K562, Leukemia
Description: as §1

HT29 = assay: NCI 60 screen, HT29; type: cell-based; details: Homo sapiens, HT-29, Colon
Description: as §1

HCT-116 = assay: NCI 60 screen, HCT-116; type: cell-based; details: Homo sapiens, Colon
Description: as §1

HCC-2998 = assay: NCI 60 screen, HCC-2998; type: cell-based; details: Homo sapiens, Colon
Description: as §1

SN12C = assay: NCI 60 screen, SN12C; type: cell-based; details: Homo sapiens, Renal
Description: as §1

COLO 205 = assay: NCI 60 screen, COLO 205; type: cell-based; details: Homo sapiens, Colon
Description: as §1

BT-549 = assay: NCI 60 screen, BT-549; type: cell-based; details: Homo sapiens, Breast
Description: as §1

MCF7 = assay: NCI 60 screen, MCF7; type: cell-based; details: Homo sapiens, Breast
Description: as §1

A549/ATCC = assay: NCI 60 screen, A549/ATCC; type: cell-based; details: Homo sapiens, Non-Small Cell Lung
Description: as §1

CAKI-1 = assay: NCI 60 screen, CAKI-1; type: cell-based; details: Homo sapiens, Renal
Description: as §1

MDA-MB-468 = assay: NCI 60 screen, MDA-MB-468; type: cell-based; details: Homo sapiens, Breast
Description: as §1

IGROV1 = assay: NCI 60 screen, IGROV1; type: cell-based; details: Homo sapiens, IGROV-1, Ovarian
Description: as §1

HOP-92 = assay: NCI 60 screen, HOP-92; type: cell-based; details: Homo sapiens, Non-Small Cell Lung
Description: as §1

UO-31 = assay: NCI 60 screen, UO-31; type: cell-based; details: Homo sapiens, Renal
Description: as §1

UACC-257 = assay: NCI 60 screen, UACC-257; type: cell-based; details: Homo sapiens, Melanoma
Description: as §1

OVCAR-4 = assay: NCI 60 screen, OVCAR-4; type: cell-based; details: Homo sapiens, Ovarian
Description: as §1

HL-60(TB) = assay: NCI 60 screen, HL-60(TB); type: cell-based; details: Homo sapiens, Leukemia
Description: as §1

SK-OV-3 = assay: NCI 60 screen, SK-OV-3; type: cell-based; details: Homo sapiens, Ovarian
Description: as §1

M14 = assay: NCI 60 screen, M14; type: cell-based; details: Homo sapiens, Melanoma
Description: as §1

SF-539 = assay: NCI 60 screen, SF-539; type: cell-based; details: Homo sapiens, CNS
Description: as §1

PC-3 = assay: NCI 60 screen, PC-3; type: cell-based; details: Homo sapiens, Prostatic
Description: as §1

A498 = assay: NCI 60 screen, A498; type: cell-based; details: Homo sapiens, Renal
Description: as §1

RPMI-8226 = assay: NCI 60 screen, RPMI-8226; type: cell-based; details: Homo sapiens, Leukemia
Description: as §1

NCI-322M = assay: NCI 60 screen, NCI-322M; type: cell-based; details: Homo sapiens, Non-Small Cell Lung
Description: as §1

SW-620 = assay: NCI 60 screen, SW-620; type: cell-based; details: Homo sapiens, Colon
Description: as §1

MDA-MB-435 = assay: NCI 60 screen, MDA-MB-435; type: cell-based; details: Homo sapiens, Melanoma
Description: as §1

NCI-H23 = assay: NCI 60 screen, NCI-H23; type: cell-based; details: Homo sapiens, Non-Small Cell Lung
Description: as §1

KM12 = assay: NCI 60 screen, KM12; type: cell-based; details: Homo sapiens, Colon
Description: as §1

CCRF-CEM = assay: NCI 60 screen, CCRF-CEM; type: cell-based; details: Homo sapiens, Leukemia
Description: as §1

NCI-H226 = assay: NCI 60 screen, NCI-H226; type: cell-based; details: Homo sapiens, Non-Small Cell Lung
Description: as §1

SK-MEL-2 [1] = assay: NCI 60 screen, SK-MEL-2 (first line); type: cell-based; details: Homo sapiens; Melanoma, SK-MEL-2 (first of two lines so named, r37)
Description: as §1

OVCAR-8 = assay: NCI 60 screen, OVCAR-8; type: cell-based; details: Homo sapiens, Ovarian
Description: as §1

HCT15 = assay: NCI 60 screen, HCT15; type: cell-based; details: Homo sapiens, HCT-15, Colon
Description: as §1

UACC-62 = assay: NCI 60 screen, UACC-62; type: cell-based; details: Homo sapiens, Melanoma
Description: as §1

MDA-MB-231/ATCC = assay: NCI 60 screen, MDA-MB-231/ATCC; type: cell-based; details: Homo sapiens, Breast
Description: as §1

SK-MEL-2 [2] = assay: NCI 60 screen, SK-MEL-2 (second line); type: cell-based; details: Homo sapiens; Melanoma, SK-MEL-2 (second of two lines so named, r38)
Description: as §1

NCI-460 = assay: NCI 60 screen, NCI-460; type: cell-based; details: Homo sapiens, Non-Small Cell Lung
Description: as §1

SNB-75 = assay: NCI 60 screen, SNB-75; type: cell-based; details: Homo sapiens, CNS
Description: as §1

SF-295 = assay: NCI 60 screen, SF-295; type: cell-based; details: Homo sapiens, CNS
Description: as §1

MOLT-4 = assay: NCI 60 screen, MOLT-4; type: cell-based; details: Homo sapiens, Leukemia
Description: as §1

DU-145 = assay: NCI 60 screen, DU-145; type: cell-based; details: Homo sapiens, Prostatic
Description: as §1

U251 = assay: NCI 60 screen, U251; type: cell-based; details: Homo sapiens, U-251, CNS
Description: as §1

MALME-3M = assay: NCI 60 screen, MALME-3M; type: cell-based; details: Homo sapiens, Melanoma
Description: as §1

SR = assay: NCI 60 screen, SR; type: cell-based; details: Homo sapiens, Leukemia
Description: as §1

LOX IMVI = assay: NCI 60 screen, LOX IMVI; type: cell-based; details: Homo sapiens, Melanoma
Description: as §1

OVCAR-3 = assay: NCI 60 screen, OVCAR-3; type: cell-based; details: Homo sapiens, Ovarian
Description: as §1

HS 578T = assay: NCI 60 screen, HS 578T; type: cell-based; details: Homo sapiens, Breast
Description: as §1

T-47D = assay: NCI 60 screen, T-47D; type: cell-based; details: Homo sapiens, T47D, Breast
Description: as §1

ACHN = assay: NCI 60 screen, ACHN; type: cell-based; details: Homo sapiens, Renal
Description: as §1

OVCAR-5 = assay: NCI 60 screen, OVCAR-5; type: cell-based; details: Homo sapiens, Ovarian
Description: as §1

TK-10 = assay: NCI 60 screen, TK-10; type: cell-based; details: Homo sapiens, Renal
Description: as §1

NCI-H522 = assay: NCI 60 screen, NCI-H522; type: cell-based; details: Homo sapiens, Non-Small Cell Lung
Description: as §1

EKVX = assay: NCI 60 screen, EKVX; type: cell-based; details: Homo sapiens, Non-Small Cell Lung
Description: as §1

RXF393 = assay: NCI 60 screen, RXF393; type: cell-based; details: Homo sapiens, RXF 393, Renal
Description: as §1

HOP-62 = assay: NCI 60 screen, HOP-62; type: cell-based; details: Homo sapiens, Non-Small Cell Lung
Description: as §1

786-0 = assay: NCI 60 screen, 786-0; type: cell-based; details: Homo sapiens, Renal
Description: as §1

Molecule `CCn1ccnc1C(=O)/C=C/c1ccc(CC(=O)Nc2ccc(F)cc2)cc1` [Compound 31, (E)-2-(4-(3-(1-ethyl-1H-imidazol-2-yl)-3-oxoprop-1-en-1-yl)phenyl)-N-(4-fluorophenyl)acetamide] has a GI50 (NCI/ADR-RES) of 5.37 µM, a GI50 (SK-MEL-5) of 5.74 µM and a GI50 (SNB-19) of 3.58 µM. The GI50 (SF-268) was 3.81 µM, the GI50 (K-562) was 2.06 µM and the GI50 (HT29) was 5.64 µM. For the same molecule, the GI50 (HCT-116) was 1.84 µM, the GI50 (HCC-2998) was 5.1 µM and the GI50 (SN12C) was 3.71 µM. It also gave a GI50 (COLO 205) of 4.29 µM, a GI50 (BT-549) of 2.94 µM and a GI50 (MCF7) of 2.52 µM. For the same molecule, the GI50 (A549/ATCC) was 4.16 µM, the GI50 (CAKI-1) was 5.08 µM and the GI50 (MDA-MB-468) was 1.99 µM. For the same molecule, the GI50 (IGROV1) was 4.63 µM, the GI50 (HOP-92) was 3.32 µM and the GI50 (UO-31) was 2.65 µM. It also gave a GI50 (UACC-257) of 14 µM, a melting point of 219 to 220 °C and a GI50 (OVCAR-4) of 3.31 µM. It also gave a GI50 (HL-60(TB)) of 3.18 µM, a GI50 (SK-OV-3) of 6.97 µM and a GI50 (M14) of 3.02 µM. The GI50 (SF-539) was 2.93 µM, the GI50 (PC-3) was 7.06 µM and the GI50 (A498) was 3.73 µM. The GI50 (RPMI-8226) was 2.28 µM, the GI50 (NCI-322M) was 3.49 µM and the GI50 (SW-620) was 4.29 µM. It also gave a GI50 (MDA-MB-435) of 4.58 µM, a GI50 (NCI-H23) of 4.25 µM and a GI50 (KM12) of 3.06 µM. For the same molecule, the GI50 (CCRF-CEM) was 4.34 µM, the GI50 (NCI-H226) was 3.61 µM and the GI50 (SK-MEL-2 [1]) was 6.26 µM. For the same molecule, the GI50 (OVCAR-8) was 4.86 µM, the GI50 (HCT15) was 1.93 µM and the GI50 (UACC-62) was 2.83 µM. For the same molecule, the GI50 (MDA-MB-231/ATCC) was 3.36 µM, the GI50 (SK-MEL-2 [2]) was 4.92 µM and the GI50 (NCI-460) was 2.64 µM. It also gave a GI50 (SNB-75) of 2.81 µM, a GI50 (SF-295) of 4.41 µM and a GI50 (MOLT-4) of 5.28 µM. For the same molecule, the GI50 (DU-145) was 4.45 µM, the GI50 (U251) was 1.88 µM and the GI50 (MALME-3M) was 16.7 µM. For the same molecule, the GI50 (SR) was 0.53 µM, the GI50 (LOX IMVI) was 0.56 µM and the GI50 (OVCAR-3) was 3.92 µM. The GI50 (HS 578T) was 5.36 µM, the GI50 (T-47D) was 3.8 µM and the GI50 (ACHN) was 3.95 µM. For the same molecule, the GI50 (OVCAR-5) was 4.97 µM, the GI50 (TK-10) was 6.01 µM and the GI50 (NCI-H522) was 3.92 µM. For the same molecule, the GI50 (EKVX) was 3.59 µM, the GI50 (RXF393) was 3.39 µM and the GI50 (HOP-62) was 3.92 µM. The GI50 (786-0) was 4.36 µM.
